According to article PMC6874179, “Development of Macrocycle Kinase Inhibitors for ALK2 Using Fibrodysplasia Ossificans Progressiva‐Derived Endothelial Cells” (JBMR Plus, 2019):

Assays:
Format in all cases: biochemical
TEK_R849W = target: T1, TEK_R849W (Homo sapiens, UniProt Q02763, R849W); test: Proqinase Kinase profiling; conditions: read-out: % inhibition at 100nM
T1 construct: purchased DiscoverX

HIPK3 = target: T2, HIPK3 (Homo sapiens, UniProt Q9H422); test: Proqinase Kinase profiling; conditions: read-out: % inhibition at 100nM
T2 construct: purchased DiscoverX

SLK = target: T3, SLK (Homo sapiens, UniProt Q9H2G2); test: Proqinase Kinase profiling; conditions: read-out: % inhibition at 100nM
T3 construct: purchased DiscoverX

RPS6KA3 = target: T4, RPS6KA3 (Homo sapiens, UniProt P51812); test: Proqinase Kinase profiling; conditions: read-out: % inhibition at 100nM
T4 construct: purchased DiscoverX

ALK2 wt = ALK2 wt (Homo sapiens, UniProt Q04771); test: RBC HotSpot Kinase assay
FLT1 = target: T5, FLT1 (Homo sapiens, UniProt P17948); test: Proqinase Kinase profiling; conditions: read-out: % inhibition at 100nM
T5 construct: purchased DiscoverX

GRK5 = target: T6, GRK5 (Homo sapiens, UniProt P34947); test: Proqinase Kinase profiling; conditions: read-out: % inhibition at 100nM
T6 construct: purchased DiscoverX

RPS6KA4 = target: T7, RPS6KA4 (Homo sapiens, UniProt O75676); test: Proqinase Kinase profiling; conditions: read-out: % inhibition at 100nM
T7 construct: purchased DiscoverX

CAMK4 = target: T8, CAMK4 (Homo sapiens, UniProt Q16566); test: Proqinase Kinase profiling; conditions: read-out: % inhibition at 100nM
T8 construct: purchased DiscoverX

RIPK2 = target: T9, RIPK2 (Homo sapiens, UniProt O43353); test: Proqinase Kinase profiling; conditions: read-out: % inhibition at 100nM
T9 construct: purchased DiscoverX

CAMK2D = target: T10, CAMK2D (Homo sapiens, UniProt Q13557); test: Proqinase Kinase profiling; conditions: read-out: % inhibition at 100nM
T10 construct: purchased DiscoverX

EIF2AK2 = target: T11, EIF2AK2 (Homo sapiens, UniProt P19525); test: Proqinase Kinase profiling; conditions: read-out: % inhibition at 100nM
T11 construct: purchased DiscoverX

PLK1 = target: T12, PLK1 (Homo sapiens, UniProt P53350); test: Proqinase Kinase profiling; conditions: read-out: % inhibition at 100nM
T12 construct: purchased DiscoverX

CAMK2B = target: T13, CAMK2B (Homo sapiens, UniProt Q13554); test: Proqinase Kinase profiling; conditions: read-out: % inhibition at 100nM
T13 construct: purchased DiscoverX

ROCK1 = target: T14, ROCK1 (Homo sapiens, UniProt Q13464); test: Proqinase Kinase profiling; conditions: read-out: % inhibition at 100nM
T14 construct: purchased DiscoverX

AXL = target: T15, AXL (Homo sapiens, UniProt P30530); test: Proqinase Kinase profiling; conditions: read-out: % inhibition at 100nM
T15 construct: purchased DiscoverX

FRAP1 = target: T16, FRAP1 (Homo sapiens, UniProt P42345); test: Proqinase Kinase profiling; conditions: read-out: % inhibition at 100nM
T16 construct: purchased DiscoverX

MAP3K14 = target: T17, MAP3K14 (Homo sapiens, UniProt Q99558); test: Proqinase Kinase profiling; conditions: read-out: % inhibition at 100nM
T17 construct: purchased DiscoverX

EGFR_S752-I759del = target: T18, EGFR_S752-I759del (Homo sapiens, UniProt P00533, DEL752-759); test: Proqinase Kinase profiling; conditions: read-out: % inhibition at 100nM
T18 construct: purchased DiscoverX

CDK4_cyclinD1 = target: T19, CDK4_cyclinD1 (Homo sapiens, UniProt P11802); test: Proqinase Kinase profiling; conditions: read-out: % inhibition at 100nM
T19 construct: purchased DiscoverX

PDGFRA_D842V = target: T20, PDGFRA_D842V (Homo sapiens, UniProt P16234, D842V); test: Proqinase Kinase profiling; conditions: read-out: % inhibition at 100nM
T20 construct: purchased DiscoverX

TEK_Y897S = target: T21, TEK_Y897S (Homo sapiens, UniProt Q02763, Y897S); test: Proqinase Kinase profiling; conditions: read-out: % inhibition at 100nM
T21 construct: purchased DiscoverX

NEK7 = target: T22, NEK7 (Homo sapiens, UniProt Q8TDX7); test: Proqinase Kinase profiling; conditions: read-out: % inhibition at 100nM
T22 construct: purchased DiscoverX

FES = target: T23, FES (Homo sapiens, UniProt P07332); test: Proqinase Kinase profiling; conditions: read-out: % inhibition at 100nM
T23 construct: purchased DiscoverX

MAP3K8 = target: T24, MAP3K8 (Homo sapiens, UniProt P41279); test: Proqinase Kinase profiling; conditions: read-out: % inhibition at 100nM
T24 construct: purchased DiscoverX

GCK = target: T25, GCK (Homo sapiens, UniProt Q12851); test: Proqinase Kinase profiling; conditions: read-out: % inhibition at 100nM
T25 construct: purchased DiscoverX

MELK = target: T26, MELK (Homo sapiens, UniProt Q14680); test: Proqinase Kinase profiling; conditions: read-out: % inhibition at 100nM
T26 construct: purchased DiscoverX

ABL1_H396P = target: T27, ABL1_H396P (Homo sapiens, UniProt P00519, H396P); test: Proqinase Kinase profiling; conditions: read-out: % inhibition at 100nM
T27 construct: purchased DiscoverX

GSG2 = target: T28, GSG2 (Homo sapiens, UniProt Q8TF76); test: Proqinase Kinase profiling; conditions: read-out: % inhibition at 100nM
T28 construct: purchased DiscoverX

CAMK1D = target: T29, CAMK1D (Homo sapiens, UniProt Q8IU85); test: Proqinase Kinase profiling; conditions: read-out: % inhibition at 100nM
T29 construct: purchased DiscoverX

KIT_A829P = target: T30, KIT_A829P (Homo sapiens, UniProt P10721, A829P); test: Proqinase Kinase profiling; conditions: read-out: % inhibition at 100nM
T30 construct: purchased DiscoverX

PRKCZ = target: T31, PRKCZ (Homo sapiens, UniProt Q05513); test: Proqinase Kinase profiling; conditions: read-out: % inhibition at 100nM
T31 construct: purchased DiscoverX

AURKA = target: T32, AURKA (Homo sapiens, UniProt O14965); test: Proqinase Kinase profiling; conditions: read-out: % inhibition at 100nM
T32 construct: purchased DiscoverX

EGFR = target: T33, EGFR (Homo sapiens, UniProt P00533); test: Proqinase Kinase profiling; conditions: read-out: % inhibition at 100nM
T33 construct: purchased DiscoverX

BMPR1A = target: T34, BMPR1A (Homo sapiens, UniProt P36894); test: Proqinase Kinase profiling; conditions: read-out: % inhibition at 100nM
T34 construct: purchased DiscoverX

CHUK = target: T35, CHUK (Homo sapiens, UniProt O15111); test: Proqinase Kinase profiling; conditions: read-out: % inhibition at 100nM
T35 construct: purchased DiscoverX

ABL1_E255K = target: T36, ABL1_E255K (Homo sapiens, UniProt P00519, E255K); test: Proqinase Kinase profiling; conditions: read-out: % inhibition at 100nM
T36 construct: purchased DiscoverX

TYK2 = target: T37, TYK2 (Homo sapiens, UniProt P29597); test: Proqinase Kinase profiling; conditions: read-out: % inhibition at 100nM
T37 construct: purchased DiscoverX

MET_Y1230C = target: T38, MET_Y1230C (Homo sapiens, UniProt P08581, Y1230C); test: Proqinase Kinase profiling; conditions: read-out: % inhibition at 100nM
T38 construct: purchased DiscoverX

RET_G691S = target: T39, RET_G691S (Homo sapiens, UniProt P07949, G691S); test: Proqinase Kinase profiling; conditions: read-out: % inhibition at 100nM
T39 construct: purchased DiscoverX

DCLK2 = target: T40, DCLK2 (Homo sapiens, UniProt Q8N568); test: Proqinase Kinase profiling; conditions: read-out: % inhibition at 100nM
T40 construct: purchased DiscoverX

MAP3K9 = target: T41, MAP3K9 (Homo sapiens, UniProt P80192); test: Proqinase Kinase profiling; conditions: read-out: % inhibition at 100nM
T41 construct: purchased DiscoverX

T24 sequence (P41279 whole entry): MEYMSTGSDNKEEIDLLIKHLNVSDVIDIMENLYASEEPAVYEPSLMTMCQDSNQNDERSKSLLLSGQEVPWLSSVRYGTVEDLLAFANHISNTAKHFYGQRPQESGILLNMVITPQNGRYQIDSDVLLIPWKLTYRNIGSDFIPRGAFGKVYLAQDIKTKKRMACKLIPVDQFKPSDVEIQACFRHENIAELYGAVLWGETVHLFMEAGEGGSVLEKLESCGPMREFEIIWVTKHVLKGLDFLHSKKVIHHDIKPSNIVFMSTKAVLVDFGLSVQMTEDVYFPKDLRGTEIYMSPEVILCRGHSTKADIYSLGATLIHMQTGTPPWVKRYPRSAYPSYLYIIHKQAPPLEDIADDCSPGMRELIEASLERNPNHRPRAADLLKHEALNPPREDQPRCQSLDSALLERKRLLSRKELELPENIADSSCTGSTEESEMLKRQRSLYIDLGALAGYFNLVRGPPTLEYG
T40 sequence (Q8N568 whole entry): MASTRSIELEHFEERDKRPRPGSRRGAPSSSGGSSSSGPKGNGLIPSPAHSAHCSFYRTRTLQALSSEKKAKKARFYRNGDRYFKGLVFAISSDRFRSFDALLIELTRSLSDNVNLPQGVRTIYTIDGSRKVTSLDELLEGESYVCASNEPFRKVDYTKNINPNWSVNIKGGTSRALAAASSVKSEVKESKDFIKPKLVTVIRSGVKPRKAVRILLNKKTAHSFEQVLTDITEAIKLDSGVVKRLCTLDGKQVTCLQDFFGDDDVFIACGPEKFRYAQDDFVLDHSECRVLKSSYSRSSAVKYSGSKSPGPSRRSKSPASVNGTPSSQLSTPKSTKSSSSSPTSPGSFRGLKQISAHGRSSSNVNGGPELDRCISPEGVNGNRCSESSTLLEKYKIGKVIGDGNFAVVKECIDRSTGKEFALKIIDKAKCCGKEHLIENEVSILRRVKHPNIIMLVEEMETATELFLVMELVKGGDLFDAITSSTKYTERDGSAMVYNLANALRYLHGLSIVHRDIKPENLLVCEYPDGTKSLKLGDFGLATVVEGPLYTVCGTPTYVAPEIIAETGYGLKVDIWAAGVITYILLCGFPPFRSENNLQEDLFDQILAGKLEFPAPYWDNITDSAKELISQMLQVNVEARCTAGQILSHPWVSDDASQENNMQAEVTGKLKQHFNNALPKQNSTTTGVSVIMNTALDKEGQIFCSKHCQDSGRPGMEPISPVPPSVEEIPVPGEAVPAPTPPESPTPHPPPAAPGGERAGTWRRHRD
T4 sequence (P51812 whole entry): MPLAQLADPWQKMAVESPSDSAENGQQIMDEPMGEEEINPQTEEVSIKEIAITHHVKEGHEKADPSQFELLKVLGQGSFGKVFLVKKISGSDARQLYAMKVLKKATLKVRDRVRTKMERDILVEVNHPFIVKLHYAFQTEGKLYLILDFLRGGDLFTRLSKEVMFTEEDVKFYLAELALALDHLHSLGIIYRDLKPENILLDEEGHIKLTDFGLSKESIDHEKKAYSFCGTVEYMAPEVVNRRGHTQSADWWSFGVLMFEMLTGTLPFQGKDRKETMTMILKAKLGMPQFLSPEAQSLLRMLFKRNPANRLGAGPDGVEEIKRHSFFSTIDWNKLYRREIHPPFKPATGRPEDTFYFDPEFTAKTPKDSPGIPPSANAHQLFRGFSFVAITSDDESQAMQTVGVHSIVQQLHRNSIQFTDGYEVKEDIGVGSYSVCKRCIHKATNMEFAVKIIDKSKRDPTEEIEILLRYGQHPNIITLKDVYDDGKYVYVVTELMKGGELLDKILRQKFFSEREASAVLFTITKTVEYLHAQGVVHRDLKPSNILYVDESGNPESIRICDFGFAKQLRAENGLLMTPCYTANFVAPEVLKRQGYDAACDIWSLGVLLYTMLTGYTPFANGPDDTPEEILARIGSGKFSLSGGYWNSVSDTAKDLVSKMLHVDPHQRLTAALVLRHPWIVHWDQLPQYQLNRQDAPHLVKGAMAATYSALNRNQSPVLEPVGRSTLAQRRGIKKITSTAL
T31 sequence (Q05513 whole entry): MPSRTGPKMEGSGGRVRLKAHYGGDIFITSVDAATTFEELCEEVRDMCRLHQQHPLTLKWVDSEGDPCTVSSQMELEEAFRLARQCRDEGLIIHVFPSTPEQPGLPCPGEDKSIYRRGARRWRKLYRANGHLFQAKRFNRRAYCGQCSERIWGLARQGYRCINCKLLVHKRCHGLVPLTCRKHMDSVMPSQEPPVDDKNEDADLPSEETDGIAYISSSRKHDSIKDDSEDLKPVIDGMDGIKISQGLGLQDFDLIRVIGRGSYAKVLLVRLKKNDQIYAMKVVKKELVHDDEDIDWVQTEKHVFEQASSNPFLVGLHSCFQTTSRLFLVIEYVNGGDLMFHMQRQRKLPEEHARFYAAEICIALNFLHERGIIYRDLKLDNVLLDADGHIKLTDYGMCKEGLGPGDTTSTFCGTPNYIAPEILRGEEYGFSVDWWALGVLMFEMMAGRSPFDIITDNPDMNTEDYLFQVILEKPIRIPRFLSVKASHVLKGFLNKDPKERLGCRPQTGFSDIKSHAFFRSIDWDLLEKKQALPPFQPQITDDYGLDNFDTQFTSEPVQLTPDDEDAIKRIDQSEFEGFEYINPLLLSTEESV
T10 sequence (Q13557 whole entry): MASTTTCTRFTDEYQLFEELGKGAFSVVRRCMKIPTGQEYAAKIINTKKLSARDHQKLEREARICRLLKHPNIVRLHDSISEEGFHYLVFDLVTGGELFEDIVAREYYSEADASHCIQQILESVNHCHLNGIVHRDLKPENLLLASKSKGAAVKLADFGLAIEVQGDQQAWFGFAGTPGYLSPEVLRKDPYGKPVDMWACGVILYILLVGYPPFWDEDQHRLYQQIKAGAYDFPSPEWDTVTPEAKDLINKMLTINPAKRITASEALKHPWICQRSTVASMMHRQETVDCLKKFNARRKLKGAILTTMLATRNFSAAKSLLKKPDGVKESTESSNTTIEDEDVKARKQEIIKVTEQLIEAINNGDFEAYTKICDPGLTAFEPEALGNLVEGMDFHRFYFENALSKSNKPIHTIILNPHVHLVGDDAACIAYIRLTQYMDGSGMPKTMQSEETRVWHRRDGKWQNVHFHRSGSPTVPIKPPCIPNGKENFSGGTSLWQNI
Sequence of ALK2 wt (Q04771 208-502 limits assumed): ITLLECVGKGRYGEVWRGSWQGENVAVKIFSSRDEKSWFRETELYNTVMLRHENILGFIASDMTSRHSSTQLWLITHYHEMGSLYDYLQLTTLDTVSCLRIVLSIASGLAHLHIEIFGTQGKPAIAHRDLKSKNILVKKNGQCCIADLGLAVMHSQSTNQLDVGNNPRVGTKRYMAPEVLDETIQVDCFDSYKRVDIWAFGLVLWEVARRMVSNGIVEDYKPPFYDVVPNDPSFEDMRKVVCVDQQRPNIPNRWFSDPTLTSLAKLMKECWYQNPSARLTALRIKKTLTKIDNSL
T21 sequence (Q02763 23-1124 Y897S): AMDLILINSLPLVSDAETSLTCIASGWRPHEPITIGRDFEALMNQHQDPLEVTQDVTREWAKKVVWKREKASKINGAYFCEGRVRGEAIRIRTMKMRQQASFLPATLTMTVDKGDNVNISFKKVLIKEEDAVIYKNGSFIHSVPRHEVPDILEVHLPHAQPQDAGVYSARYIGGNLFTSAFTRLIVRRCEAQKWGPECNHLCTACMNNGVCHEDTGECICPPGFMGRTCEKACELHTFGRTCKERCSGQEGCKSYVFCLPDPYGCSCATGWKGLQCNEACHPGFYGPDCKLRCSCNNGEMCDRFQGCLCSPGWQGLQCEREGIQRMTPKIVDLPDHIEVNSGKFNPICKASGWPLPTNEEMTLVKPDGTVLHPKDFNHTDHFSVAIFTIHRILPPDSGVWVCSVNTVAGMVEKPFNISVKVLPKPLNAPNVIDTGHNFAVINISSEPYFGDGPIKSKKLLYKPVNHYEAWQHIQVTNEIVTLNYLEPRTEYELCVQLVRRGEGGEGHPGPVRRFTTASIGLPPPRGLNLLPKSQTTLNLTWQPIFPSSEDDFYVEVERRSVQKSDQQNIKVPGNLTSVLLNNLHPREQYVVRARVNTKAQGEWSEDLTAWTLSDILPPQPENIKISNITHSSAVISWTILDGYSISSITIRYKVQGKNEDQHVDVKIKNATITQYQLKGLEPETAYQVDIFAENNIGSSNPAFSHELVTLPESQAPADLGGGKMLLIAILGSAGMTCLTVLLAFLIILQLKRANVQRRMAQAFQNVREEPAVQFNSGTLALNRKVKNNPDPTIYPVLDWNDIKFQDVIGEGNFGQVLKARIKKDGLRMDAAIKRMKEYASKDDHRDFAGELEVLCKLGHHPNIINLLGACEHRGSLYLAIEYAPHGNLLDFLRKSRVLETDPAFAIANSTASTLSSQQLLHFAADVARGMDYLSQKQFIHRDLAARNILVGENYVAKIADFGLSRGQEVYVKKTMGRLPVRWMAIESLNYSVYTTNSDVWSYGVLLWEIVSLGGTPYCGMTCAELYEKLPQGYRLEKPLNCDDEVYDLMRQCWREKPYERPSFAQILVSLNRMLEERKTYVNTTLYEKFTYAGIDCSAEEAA
T6 sequence (P34947 whole entry): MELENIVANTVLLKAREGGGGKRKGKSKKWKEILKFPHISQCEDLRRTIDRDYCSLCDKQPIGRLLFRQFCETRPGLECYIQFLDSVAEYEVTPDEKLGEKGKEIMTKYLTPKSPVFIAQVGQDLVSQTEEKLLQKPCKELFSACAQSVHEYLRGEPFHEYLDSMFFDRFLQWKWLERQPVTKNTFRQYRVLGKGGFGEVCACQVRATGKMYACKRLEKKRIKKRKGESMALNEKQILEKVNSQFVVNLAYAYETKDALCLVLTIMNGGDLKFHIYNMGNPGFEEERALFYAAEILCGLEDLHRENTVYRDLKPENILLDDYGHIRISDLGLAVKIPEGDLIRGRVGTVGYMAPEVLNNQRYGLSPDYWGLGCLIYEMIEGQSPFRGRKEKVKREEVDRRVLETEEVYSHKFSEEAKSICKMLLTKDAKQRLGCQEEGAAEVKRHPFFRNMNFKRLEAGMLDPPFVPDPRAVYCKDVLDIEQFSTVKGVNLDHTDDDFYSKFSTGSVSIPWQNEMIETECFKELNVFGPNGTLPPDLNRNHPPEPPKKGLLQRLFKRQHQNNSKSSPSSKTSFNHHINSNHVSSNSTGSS

Clc1cc2cc(c1)-c1cnn3ccc(nc13)NCCOCCO2 [OD36]
inhibition at 0.1 µM (TEK_R849W): 8%
inhibition at 0.1 µM (HIPK3): 12%
inhibition at 0.1 µM (SLK): 13%
inhibition at 0.1 µM (RPS6KA3): 11%
IC50 (ALK2 wt): 47 nM
inhibition at 0.1 µM (FLT1): 20%
inhibition at 0.1 µM (GRK5): 1%
inhibition at 0.1 µM (RPS6KA4): 19%
inhibition at 0.1 µM (CAMK4): -4%
inhibition at 0.1 µM (RIPK2): 97%
inhibition at 0.1 µM (CAMK2D): 6%
inhibition at 0.1 µM (EIF2AK2): 9%
inhibition at 0.1 µM (PLK1): 7%
inhibition at 0.1 µM (CAMK2B): 32%
inhibition at 0.1 µM (ROCK1): 1%
inhibition at 0.1 µM (AXL): 10%
inhibition at 0.1 µM (FRAP1): 14%
inhibition at 0.1 µM (MAP3K14): 10%
inhibition at 0.1 µM (EGFR_S752-I759del): 17%
inhibition at 0.1 µM (CDK4_cyclinD1): 8%
inhibition at 0.1 µM (PDGFRA_D842V): 47%
inhibition at 0.1 µM (TEK_Y897S): 12%
inhibition at 0.1 µM (NEK7): 5%
inhibition at 0.1 µM (FES): 9%
inhibition at 0.1 µM (MAP3K8): 5%
inhibition at 0.1 µM (GCK): 35%
inhibition at 0.1 µM (MELK): 21%
inhibition at 0.1 µM (ABL1_H396P): 21%
inhibition at 0.1 µM (GSG2): 50%
inhibition at 0.1 µM (CAMK1D): 6%
inhibition at 0.1 µM (KIT_A829P): 17%
inhibition at 0.1 µM (PRKCZ): -3%
inhibition at 0.1 µM (AURKA): -7%
inhibition at 0.1 µM (EGFR): 3%
inhibition at 0.1 µM (BMPR1A): 9%
inhibition at 0.1 µM (CHUK): 20%
inhibition at 0.1 µM (ABL1_E255K): -2%
inhibition at 0.1 µM (TYK2): 14%
inhibition at 0.1 µM (MET_Y1230C): 7%
inhibition at 0.1 µM (RET_G691S): 25%
inhibition at 0.1 µM (DCLK2): 11%
inhibition at 0.1 µM (MAP3K9): 13%

Cc1cc2cc(c1)-c1cnn3ccc(nc13)NCCNC(=O)CCN(C)C2 [OD52]
inhibition at 0.1 µM (TEK_R849W): -16%
inhibition at 0.1 µM (HIPK3): -10%
inhibition at 0.1 µM (SLK): 10%
inhibition at 0.1 µM (RPS6KA3): -12%
IC50 (ALK2 wt): 72 nM
inhibition at 0.1 µM (FLT1): -4%
inhibition at 0.1 µM (GRK5): 2%
inhibition at 0.1 µM (RPS6KA4): -8%
inhibition at 0.1 µM (CAMK4): -23%
inhibition at 0.1 µM (RIPK2): 61%
inhibition at 0.1 µM (CAMK2D): -9%
inhibition at 0.1 µM (EIF2AK2): -1%
inhibition at 0.1 µM (PLK1): -1%
inhibition at 0.1 µM (CAMK2B): 12%
inhibition at 0.1 µM (ROCK1): 1%
inhibition at 0.1 µM (AXL): 10%
inhibition at 0.1 µM (FRAP1): -1%
inhibition at 0.1 µM (MAP3K14): -23%
inhibition at 0.1 µM (EGFR_S752-I759del): -15%
inhibition at 0.1 µM (CDK4_cyclinD1): -9%
inhibition at 0.1 µM (PDGFRA_D842V): 17%
inhibition at 0.1 µM (TEK_Y897S): -31%
inhibition at 0.1 µM (NEK7): 5%
inhibition at 0.1 µM (FES): -26%
inhibition at 0.1 µM (MAP3K8): -10%
inhibition at 0.1 µM (GCK): 1%
inhibition at 0.1 µM (MELK): 15%
inhibition at 0.1 µM (ABL1_H396P): -12%
inhibition at 0.1 µM (GSG2): 20%
inhibition at 0.1 µM (CAMK1D): -4%
inhibition at 0.1 µM (KIT_A829P): -10%
inhibition at 0.1 µM (PRKCZ): 4%
inhibition at 0.1 µM (AURKA): -6%
inhibition at 0.1 µM (EGFR): -14%
inhibition at 0.1 µM (BMPR1A): -7%
inhibition at 0.1 µM (CHUK): 0%
inhibition at 0.1 µM (ABL1_E255K): 7%
inhibition at 0.1 µM (TYK2): -3%
inhibition at 0.1 µM (MET_Y1230C): -13%
inhibition at 0.1 µM (RET_G691S): 24%
inhibition at 0.1 µM (DCLK2): 7%
inhibition at 0.1 µM (MAP3K9): 4%
